Measured values published in ChEMBL document CHEMBL3758098, “3-(Dipropylamino)-5-hydroxybenzofuro[2,3-f]quinazolin-1(2H)-one (DPA-HBFQ-1) plays an inhibitory role on breast cancer cell growth and progression” (Eur J Med Chem, 2016).
Active and inactive are the calls of the source. The calls are words filed in the database; no cut-off is given here.

How the values were obtained:
[1] = system: MCF7; experiment: Cytotoxicity against human MCF7 cells assessed as growth inhibition at 1 uM after 5 days by MTT assay relative to vehicle-treated control; format: functional; conditions: MCF7, 120 h, read-out: GI
[2] = system: MDA-MB-231; experiment: Cytotoxicity against human MDA-MB-231 cells assessed as growth inhibition at 1 uM after 5 days by MTT assay relative to vehicle-treated control; format: functional
[3] = Cytotoxicity against human MCF10A cells assessed as growth inhibition at 1 uM after 5 days by MTT assay relative to vehicle-treated control; format: cell-based; conditions: mcf-10a, 120 h

Row | SMILES | inhibition of growth at 1 µM [1] [%] | growth inhibition (GI) [2] | Activity [3]
1 | CCCCN(CCCC)c1nc2c(OC)cc3c4ccccc4oc3c2c(=O)[nH]1 | 25 | Active | Non-toxic
2 | CCCN(CCC)c1nc2ccc3c4ccccc4oc3c2c(=O)[nH]1 | 25 | Active | Non-toxic
3 | CCN(CC)c1nc2c(OC)cc3c4ccccc4oc3c2c(=O)[nH]1 | 15 | Active | Non-toxic
4 | CCCCN(CCCC)c1nc2ccc3c4ccccc4oc3c2c(=O)[nH]1 | 15 | Active | Non-toxic
